Measured values from publication PMC6162302, “A modified serine cycle in Escherichia coli coverts methanol and CO2 to two-carbon compounds” (Nature Communications, 2018).

Target: T1, Medh(CT4–1), variant of Mdh2 (Cupriavidus necator, UniProt F8GNE5)
T1 construct: engineered variant CT4-1 of Mdh2, N-terminal His-tag, expressed in E. coli BL21(DE3), His-Spin column purified
T1 sequence (F8GNE5 1-390): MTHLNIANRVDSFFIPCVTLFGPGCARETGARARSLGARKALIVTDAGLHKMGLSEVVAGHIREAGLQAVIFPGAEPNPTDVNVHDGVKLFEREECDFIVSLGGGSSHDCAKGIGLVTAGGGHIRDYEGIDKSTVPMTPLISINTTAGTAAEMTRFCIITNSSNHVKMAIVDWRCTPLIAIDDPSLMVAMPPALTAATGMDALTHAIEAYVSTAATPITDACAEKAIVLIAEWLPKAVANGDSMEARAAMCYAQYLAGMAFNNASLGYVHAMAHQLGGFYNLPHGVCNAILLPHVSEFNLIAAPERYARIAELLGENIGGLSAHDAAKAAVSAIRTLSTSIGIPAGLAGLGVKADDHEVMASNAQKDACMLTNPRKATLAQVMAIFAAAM
Test: NADH formation at […] nm
Format: biochemical
Settings: 500 mM methanol, 5 mM MgCl2, 100 mM NaHCO3 pH 9.5, 37 °C

In the case of `NC(=O)c1ccc[n+]([C@@H]2O[C@H](COP(=O)(O)OP(=O)(O)OC[C@H]3O[C@@H](n4cnc5c(N)ncnc54)[C@H](O)[C@@H]3O)[C@@H](O)[C@H]2O)c1` [NAD], the “NADH formation at 340 nm” value is reported as “oxidation of methanol to formaldehyde with the formation of NADH”.
